Assay results from ChEMBL document CHEMBL1201862, “PubChem BioAssay data set” (2004).
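Growth conditions: 96-well plates. Treatment: test compound, 48 hours, 5 concentrations. Analysis: linear interpolation between bracketing concentrations; unreached endpoints set to highest concentration. At the GI50, growth is halved.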 Active and inactive are the calls of the source. No stated cut-off is given here; in the data, active = GI50 up to about 1.1 µM and inactive = higher.

Columns and labels:
Assay in all cases: DTP human tumour cell line panel, 48 h
NCI-H460 = system: NCI-H460
Hs-578T = system: Hs-578T
SK-MEL-2 = system: SK-MEL-2
A549 = system: A549
HCT-116 = system: HCT-116
SK-OV-3 = system: SK-OV-3
UACC-62 = system: UACC-62
SNB-75 = system: SNB-75
NCI/ADR-RES = system: NCI/ADR-RES
MOLT-4 = system: MOLT-4
COLO 205 = system: COLO 205
IGROV-1 = system: IGROV-1
OVCAR-4 = system: OVCAR-4
MCF7 = system: MCF7
KM12 = system: KM12
HOP-92 = system: HOP-92
DU-145 = system: DU-145
UACC-257 = system: UACC-257
OVCAR-8 = system: OVCAR-8
SNB-19 = system: SNB-19

O=C1C(=CNC(=S)c2ccccc2)C(=O)c2ccccc21
GI50 (NCI-H460): 70.8 µM (inactive)
GI50 (Hs-578T): 54 µM (inactive)
GI50 (SK-MEL-2): 39.5 µM (inactive)
GI50 (A549): 67.5 µM (inactive)
GI50 (HCT-116): 46.7 µM (inactive)
GI50 (SK-OV-3): 21.7 µM (inactive)
GI50 (UACC-62): 28.8 µM (inactive)
GI50 (SNB-75): 58.9 µM (inactive)
GI50 (NCI/ADR-RES): 61.5 µM (inactive)
GI50 (MOLT-4): 27.5 µM (inactive)
GI50 (COLO 205): 69.7 µM (inactive)
GI50 (IGROV-1): 29.4 µM (inactive)
GI50 (OVCAR-4): 38.1 µM (inactive)
GI50 (MCF7): 35.2 µM (inactive)
GI50 (KM12): 62.1 µM (inactive)
GI50 (HOP-92): 40.7 µM (inactive)
GI50 (DU-145): 57.8 µM (inactive)
GI50 (UACC-257): 55.1 µM (inactive)
GI50 (OVCAR-8): 54.6 µM (inactive)
GI50 (SNB-19): 93.8 µM (inactive)

c1ccc(CN2CCC3(CC2)SSC2(CCN(Cc4ccccc4)CC2)SS3)cc1
GI50 (NCI-H460): > 100 µM (inactive)
GI50 (Hs-578T): > 100 µM (inactive)
GI50 (SK-MEL-2): > 100 µM (inactive)
GI50 (A549): > 100 µM (inactive)
GI50 (HCT-116): > 100 µM (inactive)
GI50 (SK-OV-3): > 100 µM (inactive)
GI50 (UACC-62): > 100 µM (inactive)
GI50 (SNB-75): > 100 µM (inactive)
GI50 (NCI/ADR-RES): > 100 µM (inactive)
GI50 (MOLT-4): > 100 µM (inactive)
GI50 (COLO 205): 64 µM (inactive)
GI50 (IGROV-1): > 100 µM (inactive)
GI50 (OVCAR-4): > 100 µM (inactive)
GI50 (MCF7): > 100 µM (inactive)
GI50 (KM12): > 100 µM (inactive)
GI50 (HOP-92): > 100 µM (inactive)
GI50 (DU-145): > 100 µM (inactive)
GI50 (UACC-257): 59.7 µM (inactive)
GI50 (OVCAR-8): > 100 µM (inactive)
GI50 (SNB-19): > 100 µM (inactive)

Cc1cc2nc3c(C)c4ccccc4c(C)n3c2cc1C
GI50 (NCI-H460): 1.79 µM (inactive)
GI50 (Hs-578T): 5.56 µM (inactive)
GI50 (SK-MEL-2): 3.66 µM (inactive)
GI50 (A549): 3.9 µM (inactive)
GI50 (HCT-116): 1.01 µM (active)
GI50 (SK-OV-3): 7.06 µM (inactive)
GI50 (UACC-62): 4.14 µM (inactive)
GI50 (SNB-75): 4.97 µM (inactive)
GI50 (NCI/ADR-RES): 1.51 µM (inactive)
GI50 (MOLT-4): 2.39 µM (inactive)
GI50 (COLO 205): 2.15 µM (inactive)
GI50 (IGROV-1): 2.05 µM (inactive)
GI50 (OVCAR-4): 4.35 µM (inactive)
GI50 (MCF7): 1.49 µM (inactive)
GI50 (KM12): 3.34 µM (inactive)
GI50 (HOP-92): 2.09 µM (inactive)
GI50 (DU-145): 3.3 µM (inactive)
GI50 (UACC-257): 3.36 µM (inactive)
GI50 (OVCAR-8): 1.73 µM (inactive)
GI50 (SNB-19): 4.02 µM (inactive)
